The IC50 is the concentration needed to halve the response being measured. The term IC90 denotes the concentration needed for an effect of 90%.

This is an account of results in ChEMBL document CHEMBL4483862, “Open-source discovery of chemical leads for next-generation chemoprotective antimalarials” (2018).

The subject of the assay is Plasmodium berghei. The assay can be described thus: Luciferase/luciferin-expressing antifolate-resistant parasites were used to infect a culture of HepG2 cells that were pre-incubated with compounds. Infected hepatocytes emit light due to the luciferase reaction. Assay results are presented as the percent inhibition of light emission compared to control. […]. Conditions: sporozoite; for IC90: read-out: LUCIFERASE INFECTION ASSAY - IC90. Type of assay: functional.

[1] abbreviates: read-out: LUCIFERASE INFECTION ASSAY - IC50.

Bounds are passed on as bounds.

For `O=C(CN1CCn2cccc2C1c1ccccc1)N1CCc2sccc2C1` (stereo unspecified), the IC90 was determined as 4.34 µM. Moreover, under “PBLUC_HILL_SLOPE 14, PBLUC_R_SQUARED 0.298, read-out: LUCIFERASE INFECTION ASSAY - IC50”, the IC50 amounted to 3.71 µM.
Regarding `Cc1cc(C)c(NC(=O)CNc2nn3cc(-c4ccccc4)nc3s2)c(C)c1`, the IC90 is above 10 µM. Moreover, for the setting “PBLUC_HILL_SLOPE 1.1, PBLUC_R_SQUARED 0.432, read-out: LUCIFERASE INFECTION ASSAY - IC50”, the IC50 turned out to be 1.54 µM.
Regarding `CNc1ncnc(NNC(=O)Nc2ccc(OC(F)(F)F)cc2)c1[N+](=O)[O-]`, the IC90 is above 8.52 µM. Besides, the IC50 under setting [1] stood at 3.31 µM.
The corresponding values for `O=C(NNC(=S)Nc1cc(C(F)(F)F)cc(C(F)(F)F)c1)c1cccnc1Oc1ccccc1` are above 6.59 µM and above 6.59 µM.
Regarding `Cc1nc(N2N=C3/C(=C/c4ccc(F)cc4)CCCC3C2c2ccc(F)cc2)sc1C(=O)O` (stereo unspecified), the IC90 was above 10 µM. For the same compound, the half-inhibitory concentration (IC50) (FFLUC_HILL_SLOPE 19.4, FFLUC_R_SQUARED 0.522, read-out: LUCIFERASE INFECTION ASSAY - IC50) was above 10 µM.
With `N#Cc1ccc(-c2cnc3cnc(-c4ccc(CNc5ccccc5)cc4)cn23)cc1`, the IC90 amounted to 6.67 µM. Further, for the setting “HEPG2TOX_HILL_SLOPE 0.183, HEPG2TOX_R_SQUARED 0.0935, PBLUC_HILL_SLOPE 1.81, PBLUC_R_SQUARED 0.744, read-out: LUCIFERASE INFECTION ASSAY - IC50”, the IC50 amounted to 1.98 µM.
In the case of `Cc1cc(CSc2ccccc2)ccc1NC(=O)Nc1ccccc1`, the IC90 is above 9.47 µM. For the same compound, under “PBLUC_HILL_SLOPE 1.29, PBLUC_R_SQUARED 0.521, read-out: LUCIFERASE INFECTION ASSAY - IC50”, the IC50 was 2.22 µM.
As for `Fc1cccc(-c2cc3c(Nc4ccccn4)nccc3[nH]2)c1`, the IC90 was determined as 9.13 µM. Also, the IC50 (HEPG2TOX_HILL_SLOPE 13.8, HEPG2TOX_R_SQUARED 0.872, PBLUC_HILL_SLOPE 30.4, PBLUC_R_SQUARED 0.0497, read-out: LUCIFERASE INFECTION ASSAY - IC50) worked out at 8.5 µM.
Take `Cc1nn(-c2ccccc2Cl)c2sc(C(=O)Nc3ccc(-c4nnc5n4CCCCC5)cc3)cc12`: the IC90 is above 10 µM. In addition, under setting [1], the half-maximal inhibitory concentration (IC50) is above 10 µM.
Turning to `N#C/C(=N\Nc1ccc(C(F)(F)F)cc1)S(=O)(=O)c1cccs1`, the IC90 came out at 8.89 µM. Moreover, the IC50 (HEPG2TOX_HILL_SLOPE 12.1, HEPG2TOX_R_SQUARED 0.95, PBLUC_HILL_SLOPE 4.11, PBLUC_R_SQUARED 0.238, read-out: LUCIFERASE INFECTION ASSAY - IC50) came out at 5.21 µM.
For `Cc1ccc(C(=O)NCc2nsc(=N/C(=N\c3ccccc3)c3ccccc3)n2Cc2ccccc2)cc1`, the IC90 is above 10 µM. Further, where the note is “FFLUC_HILL_SLOPE 3.57, FFLUC_R_SQUARED 0.485, HEPG2TOX_HILL_SLOPE 6.57, HEPG2TOX_R_SQUARED 0.579, PBLUC_HILL_SLOPE 15.6, PBLUC_R_SQUARED 0.234, read-out: LUCIFERASE INFECTION ASSAY - IC50”, the IC50 came out at 8.74 µM.
Regarding `COc1cc(-c2cn3c(-c4cccc(C(C)=O)c4)cnc3cn2)ccc1O`, the IC90 was above 9.18 µM. Moreover, the IC50 (HEPG2TOX_HILL_SLOPE 8.28, HEPG2TOX_R_SQUARED 0.589, PBLUC_HILL_SLOPE 10.1, PBLUC_R_SQUARED 0.274, read-out: LUCIFERASE INFECTION ASSAY - IC50) worked out at 7.75 µM.
On to `Cc1ccc2nc(COc3ccc(C(=O)NC4(C)CCS(=O)(=O)C4)cc3)cn2c1` (stereo unspecified), for which the IC90 is above 10 µM. In addition, the IC50 under setting [1] is above 10 µM.
For the compound `COC(=O)c1sccc1NC(=O)N(C)Cc1ccc(C)cc1C`, the IC90 was above 10 µM. Besides, the IC50 (PBLUC_HILL_SLOPE 2.81, PBLUC_R_SQUARED 0.305, read-out: LUCIFERASE INFECTION ASSAY - IC50) stood at 6.58 µM.
Turning to `O=C(Nc1ncccc1O)c1ccc(S(=O)(=O)NCc2ccco2)cc1`, the concentration for an effect of 90% (IC90) is above 10 µM. The IC50 (PBLUC_HILL_SLOPE 0.839, PBLUC_R_SQUARED 0.334, read-out: LUCIFERASE INFECTION ASSAY - IC50) was found to be 1.04 µM.
Consider `COCCNc1cc(C)nc2c(-c3ccc(C)cc3)c(C)nn12`, for which the IC90 is above 10.6 µM. Further, for the setting “HEPG2TOX_HILL_SLOPE 7.65, HEPG2TOX_R_SQUARED 0.721, PBLUC_HILL_SLOPE 1.1, PBLUC_R_SQUARED 0.545, read-out: LUCIFERASE INFECTION ASSAY - IC50”, the IC50 was determined as 3.65 µM.
On to `c1ccc(-c2cn3nc(NCc4cccs4)sc3n2)cc1`, for which the IC90 is above 10 µM. The IC50 (PBLUC_HILL_SLOPE 2.88, PBLUC_R_SQUARED 0.313, read-out: LUCIFERASE INFECTION ASSAY - IC50) came out at 4.87 µM.
As to `Cc1cc(C)cc(C(=O)NCC(=O)N(C)Cc2cn(-c3ccccc3)nc2-c2ccccc2)c1`, the IC90 is above 10 µM. Moreover, where the note is “PBLUC_HILL_SLOPE 2.80, 14.9, PBLUC_R_SQUARED 0.685, 0.405, read-out: LUCIFERASE INFECTION ASSAY - IC50”, the IC50 worked out at 7.57 µM.
In the case of `O=C(Nc1ccc(N2CCCC2)cn1)C1CC=CCC1` (stereo unspecified), the IC90 was determined as 0.636 µM. The IC50 (FFLUC_HILL_SLOPE 1.03, FFLUC_R_SQUARED 0.671, HEPG2TOX_HILL_SLOPE 1.03, HEPG2TOX_R_SQUARED 0.932, PBLUC_HILL_SLOPE 1.27, PBLUC_R_SQUARED 0.726, read-out: LUCIFERASE INFECTION ASSAY - IC50) turned out to be 0.112 µM.
Turning to `O=C(COc1ccccc1CSc1ccc(Cl)cc1)N/N=C/c1ccccc1Cl`, the concentration for an effect of 90% (IC90) is above 7.41 µM. Further, the IC50 under setting [1] was above 7.41 µM.
Take `FC(F)(F)Oc1cccc(-c2cnc3sc(NCCc4ccncc4)nn23)c1`: the 90% effect concentration (IC90) was above 8.14 µM. Further, the IC50 (HEPG2TOX_HILL_SLOPE 1.76, HEPG2TOX_R_SQUARED 0.88, read-out: LUCIFERASE INFECTION ASSAY - IC50) was above 8.14 µM.
Take `COc1ccccc1-c1cc(-c2ccccc2N(C)C)cnc1N`: the IC90 is above 10.3 µM. Further, the IC50 (HEPG2TOX_HILL_SLOPE 3.39, HEPG2TOX_R_SQUARED 0.524, PBLUC_HILL_SLOPE 1.95, PBLUC_R_SQUARED 0.212, read-out: LUCIFERASE INFECTION ASSAY - IC50) worked out at 5.47 µM.
As for `Cc1ccc(C(=O)Nc2cccc(CNC(C)c3ccc(F)cc3F)c2)cc1` (stereo unspecified), the IC90 was above 10 µM. The IC50 under setting [1] was above 10 µM.
Turning to `COc1cc([N+](=O)[O-])ccc1NC(=O)CN1CCc2ccccc2C1`, the IC90 was above 10 µM. The IC50 under setting [1] was above 10 µM.
Take `CNC(=O)c1ccc(CN(Cc2ccco2)C(=O)c2cc(-c3cccs3)nn2-c2ccccc2)cc1`: the IC90 was found to be 4.68 µM. Moreover, the IC50 (PBLUC_HILL_SLOPE 10.4, PBLUC_R_SQUARED 0.208, read-out: LUCIFERASE INFECTION ASSAY - IC50) was found to be 3.79 µM.
Consider `CC(=O)Nc1ccc(S(=O)(=O)N(C)CC(=O)NCCC(=O)N2CCCC2)cc1`, for which the IC90 was above 10 µM. For the same compound, under setting [1], the IC50 is above 10 µM.
In the case of `COc1ccc(C2c3ccsc3CCN2S(=O)(=O)c2ccc(F)c(Cl)c2)cc1` (stereo unspecified), the IC90 was above 7.54 µM. Besides, under “PBLUC_HILL_SLOPE 1.37, PBLUC_R_SQUARED 0.631, read-out: LUCIFERASE INFECTION ASSAY - IC50”, the IC50 was 3.09 µM.
`O=C(NCCSCc1csc2ccc(Cl)cc12)Nc1ccc(Cl)cc1`: the IC90 was above 8.02 µM. The 50% inhibitory concentration (IC50) under setting [1] is above 8.02 µM.
As to `Cc1cccc(NC2=C(Cl)C(=O)c3ccccc3C2=O)c1`, the IC90 came to 1.4 µM. Further, where the note is “HEPG2TOX_HILL_SLOPE 3.88, HEPG2TOX_R_SQUARED 0.992, PBLUC_HILL_SLOPE 14.7, PBLUC_R_SQUARED 0.858, read-out: LUCIFERASE INFECTION ASSAY - IC50”, the IC50 was found to be 1.2 µM.
On to `COc1ccc(-n2c(=O)c3ccccc3n3c(SCC(N)=O)nnc23)cc1`, for which the IC90 was above 10 µM. In addition, under setting [1], the IC50 is above 10 µM.
For `Cc1occc1C(=O)Nc1ccc(Cl)c(C(F)(F)F)c1`, the concentration for an effect of 90% (IC90) is above 10 µM. The IC50 (PBLUC_HILL_SLOPE 1.47, PBLUC_R_SQUARED 0.656, read-out: LUCIFERASE INFECTION ASSAY - IC50) was 6.43 µM.
On to `COc1cccc(-c2cnn3ccc(Nc4ccc(NS(=O)(=O)c5ccc(C)cc5)cc4)nc23)c1`, for which the IC90 is above 6.8 µM. In addition, the IC50 (HEPG2TOX_HILL_SLOPE 3.16, HEPG2TOX_R_SQUARED 0.917, PBLUC_HILL_SLOPE 15.1, PBLUC_R_SQUARED 0.0764, read-out: LUCIFERASE INFECTION ASSAY - IC50) amounted to 6.21 µM.
With `Cc1cc(Oc2ccc(-c3ccccc3)cc2)nc(C)n1`, the IC90 was above 10 µM. Also, the IC50 under setting [1] was above 10 µM.
Consider `CC(NCc1nc(N)nc(N(C)C)n1)c1ccccc1Cl` (stereo unspecified), for which the IC90 was above 10 µM. Also, under setting [1], the IC50 was above 10 µM.
On to `CCN(C(=O)CSc1nc2ccccc2c(=O)n1-c1ccc(C(C)C)cc1)c1cccc2ccccc12`, for which the IC90 was 9.59 µM. For the same compound, where the note is “FFLUC_HILL_SLOPE 12.2, FFLUC_R_SQUARED 0.564, PBLUC_HILL_SLOPE 2.95, PBLUC_R_SQUARED 0.421, read-out: LUCIFERASE INFECTION ASSAY - IC50”, the IC50 was 4.55 µM.
For the compound `NC(=O)c1ccc(-c2cc(-c3ccccc3Oc3ccccc3)cnc2N)cc1`, the IC90 came out at 2.98 µM. Also, under “PBLUC_HILL_SLOPE 21, PBLUC_R_SQUARED 0.292, read-out: LUCIFERASE INFECTION ASSAY - IC50”, the IC50 was 2.68 µM.
As to `FC(F)(F)c1cccc(-c2ccc3ncc(-c4ccncc4)n3n2)c1`, the IC90 was found to be 1.31 µM. The IC50 (HEPG2TOX_HILL_SLOPE 8.22, HEPG2TOX_R_SQUARED 0.275, PBLUC_HILL_SLOPE 7.22, PBLUC_R_SQUARED 0.51, read-out: LUCIFERASE INFECTION ASSAY - IC50) was 0.969 µM.
As to `O=C(NC1CC1)c1ccc(N2CCN(C(c3ccc(F)cc3)c3ccc(F)cc3)CC2)nc1`, the IC90 is above 10 µM. Besides, for the setting “PBLUC_HILL_SLOPE 2.42, PBLUC_R_SQUARED 0.524, read-out: LUCIFERASE INFECTION ASSAY - IC50”, the IC50 was 4.87 µM.
